# Source: ChEMBL document CHEMBL1201862, “PubChem BioAssay data set” (2004)
# Active and inactive are the calls of the source.
# Columns and labels:
# [1] = molecular target: Dual specificity protein kinase CLK1 (Homo sapiens, UniProt P49759); experiment: inhibition of human CLK1 activity – biochemical, cherry-picked samples, selectivity assay for Dyrk1A inhibitor project, dose response (AID 588811)
# [2] = Trypanosoma cruzi growth suppression in host cells – NIH3T3 host cells, beta-gal luminescence, confirmation (AID 2044); assay type: functional, cell-based;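 also: intracellular parasites grown in NIH/3T3 mouse fibroblasts as host cells; luminescent beta-galactosidase reporter signal from transgenic T. cruzi replicating inside host cells; inhibitors lower the luminescence signal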
# [3] = NIH3T3 cell viability loss – ATP luminescence, mouse fibroblasts, counter-screen, dose response (AID 2010); assay type: functional, cell-based;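 also: cells exposed to compound for about 90 hours before reading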
# [4] = Luminescence Cell-Based Dose Retest to Confirm Inhibitors of Cancer Stem Cells. [Related pubchem assays (depositor defined):AID2717, AID2721]; assay type: functional; details: Homo sapiens
# [5] = viability loss of HMLE_sh_eGFP cells – cell-based, luminescence, counter-screen for HMLE_sh_ECad selective toxicity project, dose response (AID 463074); assay type: functional, Homo sapiens;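 also: HMLE human mammary epithelial cells expressing control shRNA against eGFP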
# CAAX prenyl protease 1 = CAAX prenyl protease 1 (Saccharomyces cerevisiae S288c, UniProt P47154); experiment: yeast CAAX protease Ste24 inhibition – biochemical, S. cerevisiae, plate reader, cherry-pick, dose response (AID 488815)
# [6] = molecular target: Sphingosine 1-phosphate receptor 1 (Homo sapiens, UniProt P21453); experiment: Fluorescence-based counterscreen assay for S1P4 agonists: Cell-based dose response high throughput screening assay to identify agonists of the Sphingosine 1-Phosphate Receptor 1 (S1P1). [Related pubchem assays (depositor defined):AID1509, AID1523, AID1801, AID463107, AID463118, AID463119, AID463122, AID463123, AID463129, AID463225, AID504400, AID504460]; assay type: functional
# [7] = test system: Streptococcus sp. 'group A'; experiment: Streptococcus pyogenes SK(-)GAS viability under kanamycin – luminescence, BacTiterGlo, confirmation, counter-screen for streptokinase expression inhibitor project, dose response (AID 1900); assay type: functional, organism-based
# Streptokinase A = molecular target: T1, Streptokinase A (Streptococcus pyogenes serotype M1, UniProt P10520); experiment: viability-normalized secreted streptokinase activity reduction – plasminogen activation absorbance, OD405, dose response (AID 1914); assay type: functional, Streptococcus pyogenes M1 GAS;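 also: secreted streptokinase activity via plasminogen activation per viability signal from cell pellet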
# T1 sequence (P10520 whole entry): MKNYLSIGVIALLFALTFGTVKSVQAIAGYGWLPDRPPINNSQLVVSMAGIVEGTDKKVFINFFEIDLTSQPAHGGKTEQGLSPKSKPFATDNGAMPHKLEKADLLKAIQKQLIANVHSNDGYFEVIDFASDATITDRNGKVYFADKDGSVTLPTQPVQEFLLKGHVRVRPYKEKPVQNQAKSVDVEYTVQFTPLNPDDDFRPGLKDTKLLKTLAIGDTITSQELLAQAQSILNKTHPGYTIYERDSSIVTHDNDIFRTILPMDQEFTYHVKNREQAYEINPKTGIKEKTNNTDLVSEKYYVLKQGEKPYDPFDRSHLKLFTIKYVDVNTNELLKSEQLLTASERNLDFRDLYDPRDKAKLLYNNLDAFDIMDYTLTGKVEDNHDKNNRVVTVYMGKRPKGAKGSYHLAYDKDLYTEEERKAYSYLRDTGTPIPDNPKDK
# [8] = molecular target: Luciferin 4-monooxygenase (Photinus pyralis, UniProt P08659); experiment: inhibition of purified Photinus pyralis luciferase – biochemical, luminescence, dose response (AID 1891)
# Estrogen receptor = molecular target: T2, Estrogen receptor (Homo sapiens, UniProt P03372);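 also: potency for inhibiting coactivator peptide recruitment to the receptor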
# T2 sequence (P03372 whole entry): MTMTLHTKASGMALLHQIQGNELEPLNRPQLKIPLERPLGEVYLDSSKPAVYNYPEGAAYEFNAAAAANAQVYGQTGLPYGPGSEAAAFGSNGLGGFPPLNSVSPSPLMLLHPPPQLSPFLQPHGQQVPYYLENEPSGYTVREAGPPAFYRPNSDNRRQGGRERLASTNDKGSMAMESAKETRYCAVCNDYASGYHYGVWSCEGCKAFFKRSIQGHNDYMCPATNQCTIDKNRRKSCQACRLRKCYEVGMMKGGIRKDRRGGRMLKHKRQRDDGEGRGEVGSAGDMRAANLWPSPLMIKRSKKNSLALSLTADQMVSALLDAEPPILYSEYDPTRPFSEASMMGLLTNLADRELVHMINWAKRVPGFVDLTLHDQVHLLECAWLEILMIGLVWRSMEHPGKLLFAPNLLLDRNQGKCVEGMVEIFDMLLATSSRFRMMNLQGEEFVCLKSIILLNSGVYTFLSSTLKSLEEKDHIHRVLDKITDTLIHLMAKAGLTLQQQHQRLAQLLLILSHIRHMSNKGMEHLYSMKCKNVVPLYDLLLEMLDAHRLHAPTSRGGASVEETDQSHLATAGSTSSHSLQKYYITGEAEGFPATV
# [9] = Luminescence Cell-Based Dose Confirmation HTS to Identify Inhibitors of Platelet Dense Granule Release. [Related pubchem assays: 1663 (Primary HTS), 1678 (Summary of Project)]; assay type: functional
# [10] = molecular target: Sphingosine 1-phosphate receptor 4 (Homo sapiens, UniProt O95977); experiment: Fluorescence dose response cell-based high throughput screening assay for agonists of the Sphingosine 1-Phosphate Receptor 4 (S1P4). [Related pubchem assays: 1509 (Primary screen.), 1523 (Confirmation screen in triplicates.)]; assay type: functional
# Estrogen receptor beta [11] = molecular target: T3, Estrogen receptor beta (Homo sapiens, UniProt Q92731);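 also: recombinant ER-beta bound to coactivator SRC1 peptide in presence of estradiol agonist; inhibitors block coactivator peptide binding and lower the FRET signal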
# Estrogen receptor beta [12] = molecular target: T3, Estrogen receptor beta; experiment: blockers of SRC-3 recruitment to ERβ – biochemical, ELISA, streptavidin-HRP readout, orthogonal assay, confirmation (AID 1060)
# Streptococcus = experiment: GAS UMAA2166 growth inhibition – luminescence, BacTiterGlo, counter-screen for streptokinase expression inhibitor project, dose response (AID 1915); assay type: functional, organism-based;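 also: potency for reduction of bacterial viability or growth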
# [13] = molecular target: Sphingosine 1-phosphate receptor 2 (Homo sapiens, UniProt O95136); experiment: Dose Response Cell Based Assay for Agonists of the S1P2 Receptor. [Related pubchem assays: 729, 736, 843 ]; assay type: functional
# BJ [14] = experiment: BJ-TERT fibroblast viability loss – cell-based, RAS-independent, luminescence, dose response (AID 1933); assay type: functional; details: Homo sapiens
# BJ [15] = experiment: cells; assay type: functional, cell-based; details: Homo sapiens
# BJ [16] = experiment: BJ-TERT-LT-ST fibroblast viability loss – cell-based, RAS-independent, luminescence, dose response (AID 1935); assay type: functional; details: Homo sapiens;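 also: BJ fibroblasts immortalized with TERT plus LT and ST oncogenes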
# [17] = DRD fibroblast viability loss – cell-based, non-viral oncogenic, luminescence, dose response (AID 1934); assay type: functional; details: Homo sapiens
# [18] = HEK-293T viability loss after treatment – luminescence, T-cell screen hits, cytotoxicity control for TCR NF-kB inhibitor project, dose response (AID 489026); assay type: functional, cell-based;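 also: cells exposed to compound about 14 hours before the viability readout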
# BJ [19] = experiment: growth inhibition of engineered Ras-driven BJ cells – cell-based, alamar blue fluorescence, cherrypicked samples, dose response (AID 2631); assay type: functional; details: Homo sapiens;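 also: confirmatory dose-response assay in RAS-dependent BJ fibroblasts engineered with TERT, LT and ST, with cytotoxicity read by fluorescence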
# [20] = molecular target: T4, Polyadenylate-binding protein 1 (Homo sapiens, UniProt P11940); experiment: MLLE binding blockers, Cy5 peptide tracer – biochemical, fluorescence polarization, Cy5-PAM2 peptide, secondary, miRNA deadenylation inhibitor project, dose response (AID 602260); assay type: functional; details: read-out: IC50_Mean
# [21] = molecular target: T4, Polyadenylate-binding protein 1; experiment: MLLE domain peptide-binding blockers, IC50 – biochemical, fluorescence polarization, FITC-PAM2 peptide, dose response (AID 602259); assay type: functional; details: read-out: IC50_Mean
# [22] = cytotoxicity toward MDA-MB-231 breast cancer cells – cell-based, CellTiter-Glo luminescence, cherry-pick, cytotoxicity control for RAD54 inhibitor project, dose response (AID 651692); assay type: functional
# [23] = molecular target: T5, DNA repair and recombination protein RAD54-like (Homo sapiens, UniProt Q92698); experiment: RAD54 Holliday junction migration blockers – biochemical, fluorescence, cherry-picked samples, dose series, confirmation (AID 651657); assay type: functional
# T5 sequence (Q92698 whole entry): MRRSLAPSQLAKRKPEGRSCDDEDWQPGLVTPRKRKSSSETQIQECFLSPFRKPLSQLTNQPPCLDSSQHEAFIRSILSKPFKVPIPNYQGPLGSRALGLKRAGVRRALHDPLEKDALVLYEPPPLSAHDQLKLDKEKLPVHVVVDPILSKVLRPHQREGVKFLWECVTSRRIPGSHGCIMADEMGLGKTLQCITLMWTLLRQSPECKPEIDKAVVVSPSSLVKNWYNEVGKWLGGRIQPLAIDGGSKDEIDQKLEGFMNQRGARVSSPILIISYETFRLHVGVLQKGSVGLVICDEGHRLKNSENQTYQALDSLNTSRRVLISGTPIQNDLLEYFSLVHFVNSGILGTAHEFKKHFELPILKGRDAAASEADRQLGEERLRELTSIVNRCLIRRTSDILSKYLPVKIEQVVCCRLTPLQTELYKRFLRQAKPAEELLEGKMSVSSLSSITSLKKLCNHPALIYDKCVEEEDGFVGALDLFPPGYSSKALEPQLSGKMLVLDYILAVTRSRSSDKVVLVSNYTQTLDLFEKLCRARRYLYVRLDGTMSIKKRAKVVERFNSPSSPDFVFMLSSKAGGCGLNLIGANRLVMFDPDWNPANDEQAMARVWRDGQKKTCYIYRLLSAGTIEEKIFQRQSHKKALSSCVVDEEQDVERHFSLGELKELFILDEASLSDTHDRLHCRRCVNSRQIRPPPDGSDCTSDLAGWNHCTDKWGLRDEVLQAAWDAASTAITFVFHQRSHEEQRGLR
# [24] = molecular target: T6, DNA repair protein RAD52 homolog (Homo sapiens, UniProt P43351); assay type: functional, biochemical
# T6 sequence (P43351 whole entry): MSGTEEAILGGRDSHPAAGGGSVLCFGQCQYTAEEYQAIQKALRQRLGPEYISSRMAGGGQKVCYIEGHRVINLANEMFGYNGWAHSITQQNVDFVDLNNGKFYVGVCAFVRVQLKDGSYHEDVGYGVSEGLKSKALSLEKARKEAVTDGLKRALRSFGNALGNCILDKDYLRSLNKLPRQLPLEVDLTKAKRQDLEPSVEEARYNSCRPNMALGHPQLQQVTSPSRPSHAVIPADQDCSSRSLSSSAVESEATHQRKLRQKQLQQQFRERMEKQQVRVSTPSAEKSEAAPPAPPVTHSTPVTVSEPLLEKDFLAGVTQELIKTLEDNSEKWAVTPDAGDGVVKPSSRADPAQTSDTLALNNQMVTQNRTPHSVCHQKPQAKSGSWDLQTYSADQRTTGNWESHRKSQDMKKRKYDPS
# Paired box protein Pax-8 = Paired box protein Pax-8 (Homo sapiens, UniProt Q06710); experiment: PAX8 transcriptional activity inhibition in RMG-I – RMG-I cells, luciferase, cherry-pick, dose response (AID 687027); assay type: functional, cell-based;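 also: luciferase reporter driven by Pax8 target thyroperoxidase promoter measured by SteadyGlo luminescence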
# [25] = Luminescence-based cell-based high throughput dose response assay to identify activators of the DAF-12 from the parasite S. stercoralis (ssDAF-12).; assay type: functional
# [26] = molecular target: T7, Bifunctional protein GlmU (Mycobacterium tuberculosis, UniProt P9WMN3); experiment: Inhibitors of Mycobacterial Glucosamine-1-phosphate acetyl transferase (GlmU). Secondary screen.; set-up: species or system Mycobacterium tuberculosis H37Rv
# T7 sequence (P9WMN3 whole entry): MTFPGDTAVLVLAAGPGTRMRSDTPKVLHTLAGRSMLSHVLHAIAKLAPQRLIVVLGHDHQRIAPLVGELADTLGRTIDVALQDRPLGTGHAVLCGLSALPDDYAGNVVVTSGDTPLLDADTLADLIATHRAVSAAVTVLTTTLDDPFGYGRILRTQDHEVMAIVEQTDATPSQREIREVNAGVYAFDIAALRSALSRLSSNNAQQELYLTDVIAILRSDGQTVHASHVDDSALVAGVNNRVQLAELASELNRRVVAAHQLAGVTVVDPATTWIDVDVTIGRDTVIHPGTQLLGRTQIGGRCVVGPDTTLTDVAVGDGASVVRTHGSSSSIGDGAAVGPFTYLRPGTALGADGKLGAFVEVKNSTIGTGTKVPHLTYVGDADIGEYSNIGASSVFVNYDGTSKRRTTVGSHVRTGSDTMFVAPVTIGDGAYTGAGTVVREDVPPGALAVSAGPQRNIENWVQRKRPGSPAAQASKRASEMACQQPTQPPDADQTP
# [27] = molecular target: Induced myeloid leukemia cell differentiation protein Mcl-1 (Homo sapiens, UniProt Q07820); assay type: functional
# Induced myeloid leukemia cell differentiation protein Mcl-1, sequence (Q07820 whole entry): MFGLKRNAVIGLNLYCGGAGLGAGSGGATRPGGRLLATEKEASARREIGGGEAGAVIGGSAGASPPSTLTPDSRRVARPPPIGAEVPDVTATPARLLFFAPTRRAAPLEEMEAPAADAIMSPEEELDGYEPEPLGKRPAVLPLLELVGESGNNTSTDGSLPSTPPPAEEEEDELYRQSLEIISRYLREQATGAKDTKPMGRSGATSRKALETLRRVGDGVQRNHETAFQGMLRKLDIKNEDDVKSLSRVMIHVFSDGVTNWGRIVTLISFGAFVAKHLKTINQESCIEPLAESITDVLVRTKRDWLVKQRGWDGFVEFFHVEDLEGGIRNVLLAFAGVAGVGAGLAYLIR
# T4 sequence (P11940 whole entry, the tested form may be a part): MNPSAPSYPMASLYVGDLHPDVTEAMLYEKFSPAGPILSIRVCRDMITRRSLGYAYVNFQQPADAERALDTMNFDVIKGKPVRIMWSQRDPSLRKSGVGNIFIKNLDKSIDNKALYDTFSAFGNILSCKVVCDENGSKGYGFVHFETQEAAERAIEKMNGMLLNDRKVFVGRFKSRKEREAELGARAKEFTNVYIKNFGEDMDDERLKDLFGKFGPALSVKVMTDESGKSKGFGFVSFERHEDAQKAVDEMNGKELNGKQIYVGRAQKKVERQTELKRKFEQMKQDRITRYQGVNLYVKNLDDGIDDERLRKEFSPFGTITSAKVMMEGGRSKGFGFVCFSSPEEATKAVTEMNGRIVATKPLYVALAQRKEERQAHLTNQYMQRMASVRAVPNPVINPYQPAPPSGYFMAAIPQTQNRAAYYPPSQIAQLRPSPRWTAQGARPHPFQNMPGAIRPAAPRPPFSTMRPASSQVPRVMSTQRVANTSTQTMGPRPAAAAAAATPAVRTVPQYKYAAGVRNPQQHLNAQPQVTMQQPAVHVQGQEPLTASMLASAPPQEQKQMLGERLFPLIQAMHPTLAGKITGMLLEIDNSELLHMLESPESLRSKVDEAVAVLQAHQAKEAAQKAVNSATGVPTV
# Sphingosine 1-phosphate receptor 4, sequence (O95977 whole entry): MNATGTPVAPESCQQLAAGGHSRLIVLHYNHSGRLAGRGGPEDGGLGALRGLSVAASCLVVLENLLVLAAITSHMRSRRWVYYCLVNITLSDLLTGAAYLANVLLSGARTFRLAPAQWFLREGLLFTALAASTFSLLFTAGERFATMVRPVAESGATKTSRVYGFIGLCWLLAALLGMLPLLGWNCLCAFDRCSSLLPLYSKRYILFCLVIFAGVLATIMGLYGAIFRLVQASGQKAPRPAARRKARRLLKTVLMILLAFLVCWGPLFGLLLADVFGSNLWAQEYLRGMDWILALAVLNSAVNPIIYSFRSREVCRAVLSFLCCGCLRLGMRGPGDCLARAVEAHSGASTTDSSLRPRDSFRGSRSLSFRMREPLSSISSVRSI
# T3 sequence (Q92731 whole entry): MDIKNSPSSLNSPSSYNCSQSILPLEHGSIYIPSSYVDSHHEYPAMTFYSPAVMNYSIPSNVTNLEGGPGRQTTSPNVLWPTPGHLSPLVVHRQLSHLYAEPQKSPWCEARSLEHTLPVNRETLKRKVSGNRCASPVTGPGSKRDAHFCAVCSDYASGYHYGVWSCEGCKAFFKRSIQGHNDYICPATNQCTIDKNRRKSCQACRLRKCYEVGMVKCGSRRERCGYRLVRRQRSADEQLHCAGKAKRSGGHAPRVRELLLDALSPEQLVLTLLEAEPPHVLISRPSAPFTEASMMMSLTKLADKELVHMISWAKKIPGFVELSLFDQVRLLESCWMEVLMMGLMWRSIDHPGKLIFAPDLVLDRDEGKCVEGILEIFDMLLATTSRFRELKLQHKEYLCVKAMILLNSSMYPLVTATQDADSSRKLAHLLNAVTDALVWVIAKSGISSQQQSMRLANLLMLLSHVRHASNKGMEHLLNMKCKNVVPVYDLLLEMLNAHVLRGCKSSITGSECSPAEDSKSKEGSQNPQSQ
# Sphingosine 1-phosphate receptor 1, sequence (P21453 whole entry): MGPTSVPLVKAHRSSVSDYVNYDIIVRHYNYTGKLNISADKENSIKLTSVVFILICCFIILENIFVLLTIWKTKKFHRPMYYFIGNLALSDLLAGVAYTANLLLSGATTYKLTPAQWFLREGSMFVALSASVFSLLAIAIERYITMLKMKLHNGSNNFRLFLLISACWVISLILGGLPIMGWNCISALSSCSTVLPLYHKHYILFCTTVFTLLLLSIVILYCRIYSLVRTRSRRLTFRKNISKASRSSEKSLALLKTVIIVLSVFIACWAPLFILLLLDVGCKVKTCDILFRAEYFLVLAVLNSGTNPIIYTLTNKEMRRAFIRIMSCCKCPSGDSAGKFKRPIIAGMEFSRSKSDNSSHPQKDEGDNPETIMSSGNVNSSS
# Luciferin 4-monooxygenase, sequence (P08659 whole entry): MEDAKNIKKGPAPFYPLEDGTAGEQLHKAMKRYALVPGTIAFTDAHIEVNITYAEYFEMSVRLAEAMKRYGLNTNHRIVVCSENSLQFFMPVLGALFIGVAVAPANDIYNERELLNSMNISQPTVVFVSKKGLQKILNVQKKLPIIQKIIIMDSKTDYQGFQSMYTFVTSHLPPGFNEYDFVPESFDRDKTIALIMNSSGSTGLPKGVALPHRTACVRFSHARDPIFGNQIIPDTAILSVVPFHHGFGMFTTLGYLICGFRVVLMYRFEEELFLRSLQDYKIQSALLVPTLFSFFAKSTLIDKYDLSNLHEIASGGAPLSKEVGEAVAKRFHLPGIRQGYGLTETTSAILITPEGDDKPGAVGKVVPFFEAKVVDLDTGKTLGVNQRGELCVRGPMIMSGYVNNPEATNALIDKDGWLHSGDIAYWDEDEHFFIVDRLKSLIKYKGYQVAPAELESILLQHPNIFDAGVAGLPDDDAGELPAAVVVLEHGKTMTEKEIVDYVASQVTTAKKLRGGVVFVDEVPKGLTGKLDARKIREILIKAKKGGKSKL
# Dual specificity protein kinase CLK1, sequence (P49759 whole entry): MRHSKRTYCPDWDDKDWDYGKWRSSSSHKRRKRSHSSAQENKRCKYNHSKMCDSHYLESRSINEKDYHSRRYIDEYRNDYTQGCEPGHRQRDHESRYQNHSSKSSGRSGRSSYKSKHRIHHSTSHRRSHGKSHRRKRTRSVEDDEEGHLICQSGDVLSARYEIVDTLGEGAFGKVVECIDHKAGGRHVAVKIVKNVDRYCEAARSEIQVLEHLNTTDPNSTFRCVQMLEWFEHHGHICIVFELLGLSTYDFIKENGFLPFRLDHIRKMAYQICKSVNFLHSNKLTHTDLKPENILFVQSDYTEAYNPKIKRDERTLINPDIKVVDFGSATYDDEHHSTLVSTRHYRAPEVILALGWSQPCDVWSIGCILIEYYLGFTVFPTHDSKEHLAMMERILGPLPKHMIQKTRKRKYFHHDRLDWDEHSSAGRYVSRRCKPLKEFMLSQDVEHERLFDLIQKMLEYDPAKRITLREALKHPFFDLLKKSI
# Paired box protein Pax-8, sequence (Q06710 whole entry): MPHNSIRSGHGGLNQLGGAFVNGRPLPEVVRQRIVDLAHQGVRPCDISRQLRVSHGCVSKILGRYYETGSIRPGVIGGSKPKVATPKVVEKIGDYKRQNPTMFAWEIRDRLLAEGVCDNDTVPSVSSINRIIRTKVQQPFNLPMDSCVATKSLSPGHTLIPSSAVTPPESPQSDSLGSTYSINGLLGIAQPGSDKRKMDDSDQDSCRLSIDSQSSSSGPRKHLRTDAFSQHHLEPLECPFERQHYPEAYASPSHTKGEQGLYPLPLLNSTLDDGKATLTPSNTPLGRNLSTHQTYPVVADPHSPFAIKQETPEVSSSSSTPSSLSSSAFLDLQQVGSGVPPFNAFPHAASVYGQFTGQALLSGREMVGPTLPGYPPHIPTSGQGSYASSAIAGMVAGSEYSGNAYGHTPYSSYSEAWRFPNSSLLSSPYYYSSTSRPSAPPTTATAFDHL
# Sphingosine 1-phosphate receptor 2, sequence (O95136 whole entry): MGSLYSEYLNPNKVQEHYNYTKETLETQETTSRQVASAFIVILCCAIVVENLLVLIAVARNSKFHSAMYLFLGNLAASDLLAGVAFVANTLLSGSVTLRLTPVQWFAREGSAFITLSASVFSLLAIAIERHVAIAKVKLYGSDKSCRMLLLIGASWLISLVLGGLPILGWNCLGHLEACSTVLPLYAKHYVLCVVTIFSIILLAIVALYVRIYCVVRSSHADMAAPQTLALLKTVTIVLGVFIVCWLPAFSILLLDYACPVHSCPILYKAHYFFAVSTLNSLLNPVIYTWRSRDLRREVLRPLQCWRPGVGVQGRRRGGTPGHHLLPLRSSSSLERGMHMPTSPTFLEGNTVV
# CAAX prenyl protease 1, sequence (P47154 whole entry): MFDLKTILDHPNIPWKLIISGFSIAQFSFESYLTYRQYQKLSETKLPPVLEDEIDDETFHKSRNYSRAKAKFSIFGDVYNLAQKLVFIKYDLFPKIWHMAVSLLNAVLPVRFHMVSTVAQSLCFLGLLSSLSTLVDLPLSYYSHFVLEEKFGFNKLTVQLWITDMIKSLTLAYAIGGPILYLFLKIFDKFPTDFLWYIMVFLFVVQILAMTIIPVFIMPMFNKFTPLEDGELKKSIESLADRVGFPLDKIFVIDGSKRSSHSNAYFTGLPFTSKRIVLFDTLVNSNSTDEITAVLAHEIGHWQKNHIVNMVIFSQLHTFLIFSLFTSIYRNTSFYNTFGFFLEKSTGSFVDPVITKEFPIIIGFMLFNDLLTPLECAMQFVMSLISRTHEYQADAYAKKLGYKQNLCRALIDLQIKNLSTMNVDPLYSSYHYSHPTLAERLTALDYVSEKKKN
compound,measurement,setting,value
Cc1csc(CN(C)c2ncnc3ccc(-c4ccc5c(c4)OCO5)cc23)n1,AC50,[1],2.23 µM (active)
COc1cc(-c2nc(-c3ccccc3)c(-c3cccs3)[nH]2)cc(OC)c1OC,EC50,[2],1.21 µM (active)
same,EC50,[3],> 30 µM (not active)
same,AC50,[4],50.3 µM (active)
same,AC50,[5],29.9 µM (active)
CC1=CC2=NC(=O)CC(C)(C(=O)N(CC(=O)NC3CCCC3)Cc3ccccc3)N2C=C1 (stereo not drawn),AC50,CAAX prenyl protease 1,11.5 µM (active)
O=C(NCc1ccco1)c1cc2ccc(O)cc2oc1=O,EC50,[6],5.05 µM (active)
same,EC50,[7],7.99 µM (active)
same,EC50,Streptokinase A,> 150 µM (not active)
same,EC50,[8],0.288 µM (active)
same,IC50,Estrogen receptor,14.3 µM (active)
same,EC50,[9],1.82 µM (active)
same,EC50,[10],1.84 µM (active)
same,IC50,Estrogen receptor beta [11],3.57 µM (active)
same,IC50,Estrogen receptor beta [12],> 50 µM (not active)
same,EC50,Streptococcus,13.3 µM (active)
same,EC50,[13],3.28 µM (active)
O=C1c2cccc3cc([N+](=O)[O-])cc(c23)C(=O)N1CCN1CCCC1 [PINAFIDE],EC50,[6],3.11 µM (active)
same,EC50,BJ [14],5.47 µM (inconclusive)
same,EC50,BJ [15],9.59 µM (active)
same,EC50,[10],> 5.53 µM (not active)
same,EC50,BJ [16],> 150 µM (inconclusive)
same,EC50,[17],5.03 µM (inconclusive)
same,IC50,[18],> 80 µM (inactive)
same,EC50,BJ [19],0.478 µM (active)
same,IC50,[20],> 66 µM (inactive)
same,IC50,[21],44.7 µM (inactive)
same,AC50,[22],16 µM (inactive)
same,AC50,[23],2.94 µM (active)
same,AC50,[24],8.44 µM (active)
same,AC50,Paired box protein Pax-8,0.87 µM (active)
same,IC50,[25],> 67.5 µM (inactive)
O=C1NN(c2cccc(F)c2)C(=O)/C1=C1\C(=O)Nc2ccccc21,IC50,[26],199 µM (active)
same,IC50,[27],< 0.4 µM (active)
same,AC50,[4],4.9 µM (active)
same,AC50,[5],43.3 µM (active)
same,IC50,[20],> 66 µM (inactive)
same,IC50,[21],> 66 µM (inactive)
